This is an account of results in patent US7994209B2, “3-phenoxymethylpyrrolidine compounds” (Theravance, Inc., priority 2009, dated 2011).

A word on the Ki: it is the equilibrium dissociation constant of an inhibitor or competing ligand from its target. A lower Ki goes with higher affinity.

Experiment [1] deals with T1, hSERT (Homo sapiens, UniProt P31645). Nature of the experiment: hSERT neurotransmitter uptake assay (3H-5-HT), Assay 2. It is filed as cell-based. Details: expressed in transfected cells; host or cells: HEK-293. As to conditions: serotonin reuptake inhibition, 3H-5-HT uptake, HEK-293 hSERT cells (values without asterisk); read-out: SERT pIC50 (converted). The protocol:
(§1) Cells were harvested by centrifugation at 1100 rpm for 5 minutes, washed once by resuspension in PBS, then centrifuged. The supernatant was discarded and the cell pellet resuspended, by gentle trituration, in room temperature Krebs-Ringer bicarbonate buffer containing HEPES (10 mM), CaCl2 (2.2 mM), ascorbic acid (200 μM) and pargyline (200 μM), pH 7.4.
(§2) Test compounds were incubated for 30 minutes at 37° C. with the respective cells, prior to addition of radiolabeled neurotransmitter, ^3H-5-HT (20 nM final concentration), ^3H-NE (50 nM final concentration) or ^3H-DA (100 nM final concentration).

Experiment [2] addresses T2, hNET (Homo sapiens, UniProt P23975). Description: hNET neurotransmitter uptake assay (3H-NE), Assay 2. It is filed as cell-based. Details: expressed in transfected cells; host or cells: HEK-293. As to conditions: norepinephrine reuptake inhibition, 3H-NE uptake, HEK-293 hNET cells (values without asterisk); read-out: NET pIC50 (converted). As to the method:
as §1, §2

Experiment [3] concerns the target T2, hNET. Description: hNET membrane radioligand binding assay (3H-nisoxetine), Assay 1.
Experiment [4] concerns the target T1, hSERT. Nature of the experiment: hSERT membrane radioligand binding assay (3H-citalopram), Assay 1. To be noted: SERT pKi, hSERT HEK-293 membranes, 1.0 nM 3H-citalopram; values given as lower bounds.

T2 sequence (P23975 whole entry): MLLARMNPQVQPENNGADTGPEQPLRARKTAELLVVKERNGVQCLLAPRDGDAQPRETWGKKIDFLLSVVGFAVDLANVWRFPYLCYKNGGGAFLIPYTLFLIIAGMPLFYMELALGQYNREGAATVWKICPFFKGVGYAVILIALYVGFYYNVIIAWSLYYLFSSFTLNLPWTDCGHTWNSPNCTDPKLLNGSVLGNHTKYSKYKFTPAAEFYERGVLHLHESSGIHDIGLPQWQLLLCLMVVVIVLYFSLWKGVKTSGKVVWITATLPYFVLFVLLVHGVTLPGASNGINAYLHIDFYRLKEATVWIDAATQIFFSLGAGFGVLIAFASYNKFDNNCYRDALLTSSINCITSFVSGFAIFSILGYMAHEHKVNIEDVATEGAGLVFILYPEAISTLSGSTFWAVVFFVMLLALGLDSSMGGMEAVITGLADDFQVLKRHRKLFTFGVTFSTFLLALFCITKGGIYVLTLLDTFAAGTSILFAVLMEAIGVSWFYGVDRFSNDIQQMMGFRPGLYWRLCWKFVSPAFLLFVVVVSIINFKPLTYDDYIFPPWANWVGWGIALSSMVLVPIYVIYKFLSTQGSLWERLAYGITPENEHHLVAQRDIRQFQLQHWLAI
T1 sequence (P31645 whole entry): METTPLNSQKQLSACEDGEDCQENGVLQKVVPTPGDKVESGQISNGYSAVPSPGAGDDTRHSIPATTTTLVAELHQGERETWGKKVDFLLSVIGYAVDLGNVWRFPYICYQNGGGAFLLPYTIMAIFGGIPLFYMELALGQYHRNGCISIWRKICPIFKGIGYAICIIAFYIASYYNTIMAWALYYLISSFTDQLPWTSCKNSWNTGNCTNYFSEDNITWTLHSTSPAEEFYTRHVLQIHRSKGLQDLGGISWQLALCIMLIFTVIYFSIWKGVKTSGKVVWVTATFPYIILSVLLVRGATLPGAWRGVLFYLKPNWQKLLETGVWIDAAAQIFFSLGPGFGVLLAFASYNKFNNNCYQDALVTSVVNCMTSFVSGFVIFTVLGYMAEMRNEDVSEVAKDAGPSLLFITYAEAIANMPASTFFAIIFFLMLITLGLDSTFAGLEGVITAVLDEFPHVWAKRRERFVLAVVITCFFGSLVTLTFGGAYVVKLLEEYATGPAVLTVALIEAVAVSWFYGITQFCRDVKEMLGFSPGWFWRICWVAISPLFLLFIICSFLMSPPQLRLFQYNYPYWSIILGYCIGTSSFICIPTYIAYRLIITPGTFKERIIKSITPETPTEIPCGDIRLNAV

With `CC(C)[C@@H](Oc1cccc(Cl)c1Cl)[C@@H]1CCNC1` [Example 6-15, (R)-3-[(R)-1-(2,3-Dichlorophenoxy)-2-methylpropyl]pyrrolidine], the IC50 in experiment [1] and in experiment [2] was not above 10 nM each time. Also, the inhibitory constant (Ki) in experiment [3] and in experiment [4] was not above 10 nM throughout.
Turning to `CC[C@H](Oc1c(C)cc(Cl)cc1Cl)[C@H]1CCNC1` [Example 2-43, (S)-3-[(S)-1-(2,4-Dichloro-6-methylphenoxy)propyl]pyrrolidine], the IC50 was not above 100 nM in experiment [1] and not above 10 nM in experiment [2]. Also, the Ki in experiment [3] and in experiment [4] was not above 10 nM in each case.
Regarding `CC[C@@H](Oc1c(F)ccc(Cl)c1Cl)[C@H]1CCNC1` [Example 2-39, (S)-3-[(R)-1-(2,3-Dichloro-6-fluorophenoxy)propyl]pyrrolidine], the IC50 was not above 100 nM in experiment [1] and not above 10 nM in experiment [2]. For the same compound, the Ki in experiment [3] and in experiment [4] was not above 10 nM in each case.
As for `CC[C@@H](Oc1cccc2ccccc12)[C@H]1CCNC1` [Example 14-1, (S)-3-[(R)-1-(Naphthalen-1-yloxy)propyl]pyrrolidine], the IC50 in experiment [1] and in experiment [2] was not above 10 nM in each case. Also, the Ki in experiment [3] and in experiment [4] was not above 10 nM in each case.
Take `CC[C@H](Oc1c(C)cccc1Cl)[C@H]1CCNC1` [Example 2-27, (S)-3-[(S)-1-(2-Chloro-6-methylphenoxy)propyl]pyrrolidine]: the IC50 in experiment [1] was not above 100 nM; in experiment [2], not above 10 nM. Besides, the Ki in experiment [3] and in experiment [4] was not above 10 nM throughout.
With `CC(C)C(Oc1cccc(Cl)c1Cl)C1CCNC1` (stereo not shown) [Example 6-13, 3-[1-(2,3-Dichlorophenoxy)-2-methylpropyl]pyrrolidine], the IC50 in experiment [1] and in experiment [2] was not above 10 nM throughout. Moreover, the Ki in experiment [3] and in experiment [4] was not above 10 nM in each case.
Consider `CC[C@H](Oc1c(F)cccc1Cl)[C@H]1CCNC1` [Example 2-25, (S)-3-[(S)-1-(2-Chloro-6-fluorophenoxy)-propyl]pyrrolidine], for which the IC50 was not above 100 nM in experiment [1] and not above 10 nM in experiment [2]. Further, the inhibition constant (Ki) in experiment [3] and in experiment [4] was not above 10 nM throughout.
For `C#CC(Oc1cccc(Cl)c1Cl)[C@H]1CCNC1` (stereo partly drawn) [Example 27-1, (S)-3-[1-(2,3-Dichlorophenoxy)prop-2-ynyl]pyrrolidine], the IC50 in experiment [1] is not above 100 nM; in experiment [2], not above 10 nM. The Ki in experiment [3] and in experiment [4] was not above 10 nM throughout.
For the compound `Cc1cc(O[C@@H](C(C)C)[C@H]2CCNC2)ccc1Cl` [Example 6-70, (S)-3-[(S)-1-(4-Chloro-3-methylphenoxy)-2-methylpropyl]pyrrolidine], the IC50 in experiment [1] and in experiment [2] was not above 10 nM throughout. Moreover, the Ki in experiment [3] and in experiment [4] was not above 10 nM in each case.
`CC(C)C[C@H](Oc1ccc(Cl)cc1Cl)[C@H]1CCNC1` [Example 10-42, (S)-3-[(S)-1-(2,4-Dichlorophenoxy)-3-methylbutyl]pyrrolidine]: the IC50 in experiment [1] and in experiment [2] was not above 10 nM each time. Further, the Ki in experiment [3] and in experiment [4] was not above 10 nM each time.
Take `CC[C@H](Oc1c(F)ccc(OC)c1Cl)[C@H]1CCNC1` [Example 2-44, (S)-3-[(S)-1-(2-Chloro-6-fluoro-3-methoxyphenoxy)propyl]pyrrolidine]: the IC50 in experiment [1] and in experiment [2] was not above 10 nM each time. Moreover, the Ki in experiment [3] and in experiment [4] was not above 10 nM each time.
Take `CC(C)[C@H](Oc1c(F)ccc(Cl)c1Cl)[C@H]1CCNC1` [Example 6-34, (S)-3-[(S)-1-(2,3-Dichloro-6-fluorophenoxy)-2-methylpropyl]pyrrolidine]: the IC50 in experiment [1] and in experiment [2] was not above 10 nM in each case. Moreover, the Ki in experiment [3] and in experiment [4] was not above 10 nM in each case.
For the compound `Cc1c(Cl)cccc1O[C@H](CC(C)C)[C@H]1CCNC1` [Example 10-31, (S)-3-[(R)-1-(3-Chloro-2-methylphenoxy)-3-methylbutyl]pyrrolidine], the IC50 in experiment [1] and in experiment [2] was not above 10 nM in each case. Besides, the Ki in experiment [3] and in experiment [4] was not above 10 nM each time.
Regarding `CCC[C@H](Oc1c(Cl)ccc(Cl)c1Cl)[C@H]1CCNC1` [Example 4-27, (S)-3-[(S)-1-(2,3,6-Trichlorophenoxy)butyl]pyrrolidine], the IC50 in experiment [1] and in experiment [2] was not above 10 nM each time. For the same compound, the Ki in experiment [3] and in experiment [4] was not above 10 nM each time.
`Fc1ccc(O[C@@H](C2CC2)[C@H]2CCNC2)c(Cl)c1` [Example 16-22, (S)-3-[(S)-(2-Chloro-4-fluorophenoxy)cyclopropylmethyl]pyrrolidine]: the IC50 in experiment [1] was not above 100 nM; in experiment [2] it was not above 10 nM. Besides, the Ki in experiment [3] and in experiment [4] was not above 10 nM each time.
Take `Clc1ccc(O[C@@H](C2CC2)[C@H]2CCNC2)cc1` [Example 16-103, (S)-3-[(S)-(4-Chlorophenoxy)cyclopropylmethyl]pyrrolidine]: the IC50 in experiment [1] and in experiment [2] was not above 10 nM throughout. For the same compound, the Ki in experiment [3] and in experiment [4] was not above 10 nM each time.
With `CCC[C@H](Oc1ccc(Cl)c(Cl)c1)[C@H]1CCNC1` [Example 4-12, (S)-3-[(S)-1-(3,4-Dichlorophenoxy)butyl]pyrrolidine], the IC50 in experiment [1] and in experiment [2] was not above 10 nM each time. For the same compound, the Ki in experiment [3] and in experiment [4] was not above 10 nM each time.
Consider `CC(C)CC(Oc1cccc(C(F)(F)F)c1F)C1CCNC1` (stereo not shown) [Example 10-20, 3-[1-(2-Fluoro-3-trifluoromethylphenoxy)-3-methylbutyl]pyrrolidine], for which the IC50 in experiment [1] and in experiment [2] was not above 100 nM in each case. Besides, the Ki in experiment [3] and in experiment [4] was not above 10 nM in each case.
Consider `CC(C)C(Oc1ccc(Cl)cc1)C1CCNC1` (stereo not shown) [Example 6-74, 3-[1-(4-Chlorophenoxy)-2-methylpropyl]pyrrolidine], for which the IC50 in experiment [1] and in experiment [2] was not above 10 nM in each case. Moreover, the Ki in experiment [3] and in experiment [4] was not above 10 nM throughout.
Turning to `CC[C@H](Oc1cccc2ccccc12)[C@H]1CCNC1` [Example 13, (S)-3-[(s)-1-(Naphthalen-1-yloxy)propyl]pyrrolidine], the IC50 in experiment [1] and in experiment [2] was not above 10 nM each time. In addition, the Ki in experiment [3] and in experiment [4] was not above 10 nM each time.
Take `COc1cc(Cl)ccc1O[C@@H](C1CC1)[C@H]1CCNC1` [Example 16-37, (S)-3-[(S)-(4-Chloro-2-methoxyphenoxy)cyclopropylmethyl]pyrrolidine]: the IC50 in experiment [1] and in experiment [2] was not above 10 nM each time. For the same compound, the Ki in experiment [3] and in experiment [4] was not above 10 nM each time.
Consider `CC(C)C(Oc1ccc(Cl)cc1C(F)(F)F)C1CCNC1` (stereo not shown) [Example 6-50, 3-[1-(4-Chloro-2-trifluoromethylphenoxy)-2-methylpropyl]pyrrolidine], for which the figures for the IC50 in experiment [1] and in experiment [2] were not above 100 nM and not above 10 nM, respectively. Also, the inhibitory constant (Ki) in experiment [3] and in experiment [4] was not above 10 nM in each case.
On to `Clc1cccc(O[C@H](C2CC2)[C@H]2CCNC2)c1Cl` [Example 16-7, (S)-3-[(R)cyclopropyl-(2,3-dichlorophenoxy)methyl]pyrrolidine], for which the IC50 in experiment [1] and in experiment [2] was not above 10 nM in each case. For the same compound, the Ki in experiment [3] and in experiment [4] was not above 10 nM in each case.
As to `FC(F)(F)c1c(Cl)cccc1O[C@@H](C1CC1)[C@H]1CCNC1` [Example 16-16, (S)-3-[(S)-(3-Chloro-2-trifluoromethylphenoxy)cyclopropylmethyl]pyrrolidine], the IC50 in experiment [1] and in experiment [2] was not above 10 nM throughout. The Ki in experiment [3] and in experiment [4] was not above 10 nM in each case.
Consider `CC(C)[C@@H](Oc1cccc(Cl)c1Cl)[C@H]1CCNC1` [Example 6-14, (S)-3-[(R)-1-(2,3-Dichlorophenoxy)-2-methylpropyl]pyrrolidine], for which the IC50 in experiment [1] and in experiment [2] was not above 10 nM each time. The Ki in experiment [3] and in experiment [4] was not above 10 nM each time.
Take `CC(C)C[C@H](Oc1ccc(Cl)cc1)[C@H]1CCNC1` [Example 10-13, (S)-3-[(S)-1-(4-Chlorophenoxy)-3-methylbutyl]pyrrolidine]: the IC50 in experiment [1] and in experiment [2] was not above 10 nM in each case. Moreover, the Ki in experiment [3] and in experiment [4] was not above 10 nM each time.
`C=CC[C@H](Oc1ccc(Cl)cc1)[C@H]1CCNC1` [Example 25-1, (S)-3-[(S)-1-(4-Chlorophenoxy)but-3-enyl]pyrrolidine]: the IC50 in experiment [1] and in experiment [2] was not above 10 nM throughout. For the same compound, the Ki in experiment [3] and in experiment [4] was not above 10 nM in each case.
Consider `Cc1cc(Cl)ccc1O[C@@H](C(C)C)[C@H]1CCNC1` [Example 6-45, (S)-3-[(S)-1-(4-Chloro-2-methylphenoxy)-2-methylpropyl]pyrrolidine], for which the IC50 in experiment [1] and in experiment [2] was not above 10 nM each time. In addition, the Ki in experiment [3] and in experiment [4] was not above 10 nM throughout.
